Results published in patent publication US20100048630A1, “METHODS FOR TREATING CNS DISORDERS” (priority 2008, published 2010).

Experiments:
Male NMRI mice [1] = test: Spontaneous locomotor activity (four-channel activity monitor); type: in vivo; conditions: doses of 5 and 10 mg/kg
Procedure: (§1) Male NMRI mice weighing 24-26 g were used. The animals were kept in polycarbonate cages in a thermostatically controlled room at 24±2° C. and at a relative humidity (RH) of 50±10%. The room was artificially illuminated from 6 am to 6 pm and the mice were given commercial pellet rat-mouse feed, autoclaved at 105° C. and sterile filtered tap water, ad libitum.
(§2) An aqueous solution of radiprodil, in the form of a complex with heptakis(2,6-di-O-methyl)-β-cyclodextrin (DIMEB), was administered orally at doses of 2.5, 5 and 10 mg/kg (calculated for non-complexed radiprodil). […]
Spontaneous locomotor activity was measured in a four-channel activity monitor manufactured by Farmakotechnika (Hungary). […] The photocell beam, when broken, signaled a count, which was then recorded by a computer.
Each group consisted of 10 animals. […] The horizontal and vertical movements were determined as the number of beam interruptions collected in 15 minute intervals throughout the 1 hour period.
In the spontaneous locomotor activity test, the mean (±s.e.m) value of one hour horizontal activity data (in counts) of each group was calculated.
(§3) The significance of the drug effect was determined by ANOVA followed by post-hoc Duncan-test. The percentage change in the horizontal activity, immobility or “FST-activity” variables were calculated for each dose according to the equation; […]

Male NMRI mice [2] = test: Forced swimming test (FST); type: in vivo; conditions: doses of 5 and 10 mg/kg; may be a false positive from nonspecific stimulatory effect
Procedure: as §1, §2
The forced swimming test (FST) was measured in glass cylinders (height: […], diameter 14 cm) containing 12 cm of water, maintained at 23-25° C. […] The duration of immobility was recorded using a stopwatch. […]
In the forced swimming test, the mean±standard error on the mean (s.e.m) immobility time in seconds was measured. […] The mean (±s.e.m) “FST-activity” value was also calculated for each group and submitted to the same data analysis process as the immobility data.
as §3

`O=C(Nc1ccc2[nH]c(=O)oc2c1)C(=O)N1CCC(Cc2ccc(F)cc2)CC1` [radiprodil, 2-[4-(4-fluoro-benzyl)-piperidine-1-yl]-2-oxo-N-(2-oxo-2,3-dihydro-benzoxazol-6-yl)acetamide] was tested, and the “effect on spontaneous motor activity of the mice” value (Male NMRI mice [1]) was “stimulated” and the “effect in the forced swimming test” value (Male NMRI mice [2]) was “significant effects”.
